Our source for the IC50 values is US12371454B2, “Cyclic peptide compound having Kras inhibitory action” (priority 2019, dated 2025).

Test [1] concerns the target T1, Kras and SOS1 (biotin-tagged human Kras loaded with GDP, His-tagged human SOS1) (Homo sapiens, UniProt P01116, G12D).
T1 construct: made in house; host or cells: E. coli (stated for Kras only)
Put plainly: Protein-protein interaction inhibition between Kras and SOS1 (KrasGl2D-SOS PPI) using AlphaScreen. Type of test: binding. Particulars: AlphaScreen; biotin-tagged human Kras loaded with GDP, His-tagged human SOS1; read-out: KRAS G12D-SOS PPI IC50. Put shortly: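 Donor beads (nickel) hold His-SOS1; acceptor beads (streptavidin) hold biotin-Kras bound to GDP. Signal measured at 520-620 nm following 680 nm excitation.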

The test system of test [2] is Human pancreatic cancer cell line AsPC-1. Put plainly: Measurement of AsPC-1 cell growth inhibition (AsPC-1 CGI). In kind it is cell-based. The following applies: 96 h. The essentials: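 AsPC-1 cells in 15% FBS RPMI-1640 were exposed to test compound for 96 hours at 37° C, with CellTiter-Glo as endpoint.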

pIC50: −log10 of the molar value. Starred links: 1 amine or outer side, 2 acyl side, 3 side chain; linkers in the order of their positions; H or OH if unused. Positions of bridges follow the written chain, without caps; N, C: chain ends. Non-standard residues stand in square brackets, D forms with d. Residues, ends and D or L forms follow the SMILES beside them. *: point of attachment. hPhe(3-Cl-4-CF3) = N[C@@H](CCc1ccc(C(F)(F)F)c(Cl)c1)C(=O)O; NMePhe(4-CF3) = CN[C@@H](Cc1ccc(C(F)(F)F)cc1)C(=O)O; 3Oxa8azabicyclo(3.2.1)octane = C1CC2COCC1N2*; NMeAbu(4,4,4-F3) = CN[C@@H](CC(F)(F)F)C(=O)O; NMePhe(4-Cl) = CN[C@@H](Cc1ccc(Cl)cc1)C(=O)O; NMePhe(4-Me) = CN[C@@H](Cc1ccc(C)cc1)C(=O)O; X11 = CN([C@@H](CCc1cccnc1)C(=O)[*:2])[*:1]; NMeAla(cPent) = CN[C@@H](CC1CCCC1)C(=O)O; NMeGly(cPent) = CN[C@H](C(=O)O)C1CCCC1; NMeCha = CN[C@@H](CC1CCCCC1)C(=O)O; NMeChg = CN[C@H](C(=O)O)C1CCCCC1; NMeI = CC[C@H](C)[C@H](NC)C(=O)O; NMeD = CN[C@@H](CC(=O)O)C(=O)O; NMeL = CN[C@@H](CC(C)C)C(=O)O; NMeV = CN[C@H](C(=O)O)C(C)C; d(β3hA) = C[C@@H](N)CC(=O)O; NMeAbu = CC[C@H](NC)C(=O)O; NMeS = CN[C@@H](CO)C(=O)O; Morpholide = C1CN(*)CCO1; NMeA = CN[C@@H](C)C(=O)O; Piperidide = C1CCN(*)CC1; Pyrrolidide = C1CCN(*)C1; Ac5c = NC1(C(=O)O)CCCC1; Aze = O=C(O)[C@@H]1CCN1; X1 = FC1(F)CN(*)CC1(F)F; Ac4c = NC1(C(=O)O)CCC1; X14 = CC1(C)CCN(*)C1; Sar = CNCC(=O)O; Propyl = CCC*

T1 sequence (P01116 1-188 isoform P01116-2 G12D): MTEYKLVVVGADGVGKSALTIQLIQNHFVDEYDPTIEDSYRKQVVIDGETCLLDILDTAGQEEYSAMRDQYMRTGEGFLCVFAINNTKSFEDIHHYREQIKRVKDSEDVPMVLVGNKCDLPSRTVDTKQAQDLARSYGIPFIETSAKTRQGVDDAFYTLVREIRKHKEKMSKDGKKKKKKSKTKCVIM

Consider `CC[C@H](C)[C@@H]1NC(=O)[C@H]([C@@H](C)CC)N(C)C(=O)C[C@@H](C(=O)N2CCCCC2)N(C)C(=O)[C@H](C2CCCCC2)N(C)C(=O)C2(CCCC2)NC(=O)[C@@H]2CCCN2C(=O)[C@H](CCc2ccc(C(F)(F)F)c(Cl)c2)NC(=O)CN(C)C(=O)[C@H](CC2CCCCC2)N(C)C(=O)CN(C)C(=O)CN(C)C1=O` [Compound 1671] ([NMeI]I[Sar][Sar][NMeCha][Sar][hPhe(3-Cl-4-CF3)]P[Ac5c][NMeChg][NMeD]-Piperidide; lactam N-11), for which the pIC50 (as a rule, the negative decadic logarithm of the IC50, by convention in mol/L) in test [1] is 8.96; in test [2] it was 7.00 to 7.30.
Regarding `CC[C@H](C)[C@@H]1NC(=O)[C@H](CC(C)C)N(C)C(=O)C[C@@H](C(=O)N2CC(F)(F)C(F)(F)C2)N(C)C(=O)[C@H](C2CCCCC2)N(C)C(=O)C2(CCCC2)NC(=O)[C@@H]2CCCN2C(=O)[C@H](CCc2ccc(C(F)(F)F)c(Cl)c2)NC(=O)CN(C)C(=O)[C@H](CC2CCCCC2)N(C)C(=O)CN(C)C(=O)CN(C)C1=O` [Compound 1207] ([NMeL]I[Sar][Sar][NMeCha][Sar][hPhe(3-Cl-4-CF3)]P[Ac5c][NMeChg][NMeD]-X1; lactam N-11), the pIC50 in test [1] was 8.57; in test [2], 6.30 to 7.00.
The matching figures for `CC[C@H](C)[C@@H]1NC(=O)[C@H](C)N(C)C(=O)C[C@@H](C(=O)N2CCCC2)N(C)C(=O)[C@H](C2CCCCC2)N(C)C(=O)C2(CCCC2)NC(=O)[C@@H]2CCCN2C(=O)[C@H](CCc2ccc(C(F)(F)F)c(Cl)c2)NC(=O)CN(C)C(=O)[C@H](CC2CCCCC2)N(C)C(=O)CN(C)C(=O)CN(C)C1=O` [Compound 1720] ([NMeA]I[Sar][Sar][NMeCha][Sar][hPhe(3-Cl-4-CF3)]P[Ac5c][NMeChg][NMeD]-Pyrrolidide; lactam N-11): 9.24 and 7.00 to 7.30.
The matching figures for `CC[C@H](C)[C@@H]1NC(=O)[C@H](CC(C)C)N(C)C(=O)C[C@@H](C(=O)N(C)C)N(C)C(=O)[C@H]([C@@H](C)CC)N(C)C(=O)C2(CCCC2)NC(=O)[C@H](Cc2ccc(Cl)cc2)N(C)C(=O)[C@H](CCc2ccc(C(F)(F)F)c(Cl)c2)NC(=O)CN(C)C(=O)[C@H](Cc2ccc(C)cc2)N(C)C(=O)[C@@H]2CCN2C(=O)[C@H](C)N(C)C1=O` [Compound 838] ([NMeL]I[NMeA][Aze][NMePhe(4-Me)][Sar][hPhe(3-Cl-4-CF3)][NMePhe(4-Cl)][Ac5c][NMeI][NMeD]-NMe2; lactam N-11): 8.00 and 6.30 to 7.00.
The matching figures for `CC[C@H](C)[C@@H]1NC(=O)[C@H](CC(C)C)N(C)C(=O)C[C@@H](C(=O)N(C)C)N(C)C(=O)[C@H]([C@@H](C)CC)N(C)C(=O)C2(CCCC2)NC(=O)[C@H](C)NC(=O)[C@H](CCc2ccc(C(F)(F)F)c(Cl)c2)NC(=O)CN(C)C(=O)[C@H](Cc2ccc(C)cc2)N(C)C(=O)[C@@H]2CCN2C(=O)[C@H](C)N(C)C1=O` [Compound 957] ([NMeL]I[NMeA][Aze][NMePhe(4-Me)][Sar][hPhe(3-Cl-4-CF3)]A[Ac5c][NMeI][NMeD]-NMe2; lactam N-11): 9.36 and 6.30 to 7.00.
For `CCCOC[C@H]1C(=O)N(C)CC(=O)N[C@@H](CCc2ccc(C(F)(F)F)c(Cl)c2)C(=O)N2CCC[C@H]2C(=O)NC2(CCCC2)C(=O)N(C)[C@@H](C2CCCCC2)C(=O)N(C)[C@H](C(=O)N2CCCC2)CC(=O)N(C)[C@@H](CC(F)(F)F)C(=O)N[C@@H]([C@@H](C)CC)C(=O)N(C)CC(=O)N(C)CC(=O)N1C` [Compound 735] ([NMeAbu(4,4,4-F3)]I[Sar][Sar][NMeS](Propyl)[Sar][hPhe(3-Cl-4-CF3)]P[Ac5c][NMeChg][NMeD]-Pyrrolidide; lactam N-11), the pIC50 is 9.36 in test [1] and 7.00 to 7.30 in test [2].
In the same order, the values of `CC[C@H](C)[C@@H]1NC(=O)[C@H](CC)N(C)C(=O)C[C@@H](C(=O)N2CCOCC2)N(C)C(=O)[C@H](C2CCCCC2)N(C)C(=O)C2(CCCC2)NC(=O)[C@@H]2CCCN2C(=O)[C@H](CCc2ccc(C(F)(F)F)c(Cl)c2)NC(=O)CN(C)C(=O)[C@H](CC2CCCCC2)N(C)C(=O)CN(C)C(=O)CN(C)C1=O` [Compound 1915] ([NMeAbu]I[Sar][Sar][NMeCha][Sar][hPhe(3-Cl-4-CF3)]P[Ac5c][NMeChg][NMeD]-Morpholide; lactam N-11) are 9.42 and 7.00 to 7.30.
In the same order, the values of `CC[C@H](C)[C@@H]1NC(=O)[C@H](CC2CCCCC2)N(C)C(=O)C[C@@H](C(=O)N2CCCCC2)N(C)C(=O)[C@H](C(C)C)N(C)C(=O)C2(CCCC2)NC(=O)[C@@H]2CCCN2C(=O)[C@H](CCc2ccc(C(F)(F)F)c(Cl)c2)NC(=O)CN(C)C(=O)[C@H](CC2CCCCC2)N(C)C(=O)CN(C)C(=O)CN(C)C1=O` [Compound 321] ([NMeCha]I[Sar][Sar][NMeCha][Sar][hPhe(3-Cl-4-CF3)]P[Ac5c][NMeV][NMeD]-Piperidide; lactam N-11) are 7.96 and 6.30 to 7.00.
Regarding `CC[C@H](C)[C@@H]1NC(=O)[C@H](CC(C)C)N(C)C(=O)C[C@@H](C)NC(=O)[C@H](C2CCCC2)N(C)C(=O)C2(CCCC2)NC(=O)[C@H](C)N(C)C(=O)[C@H](CCc2ccc(C(F)(F)F)c(Cl)c2)NC(=O)CN(C)C(=O)[C@H](Cc2ccc(C)cc2)N(C)C(=O)[C@@H]2CCN2C(=O)[C@H](C)N(C)C1=O` [Compound 1153] (cyclo([Ac5c][NMeGly(cPent)][d(β3hA)][NMeL]I[NMeA][Aze][NMePhe(4-Me)][Sar][hPhe(3-Cl-4-CF3)][NMeA])), the negative logarithm of the IC50 (pIC50) is 8.60 in test [1] and 6.30 to 7.00 in test [2].
The matching figures for `CC(C)C[C@H]1C(=O)N[C@@H](C(C)C)C(=O)N(C)CC(=O)N(C)CC(=O)N(C)[C@@H](CC2CCCCC2)C(=O)N(C)CC(=O)N[C@@H](CCc2ccc(C(F)(F)F)c(Cl)c2)C(=O)N2CCC[C@H]2C(=O)NC2(CCCC2)C(=O)N(C)[C@@H](C2CCCCC2)C(=O)N(C)[C@H](C(=O)N2C3CCC2COC3)CC(=O)N1C` [Compound 1928] ([NMeL]V[Sar][Sar][NMeCha][Sar][hPhe(3-Cl-4-CF3)]P[Ac5c][NMeChg][NMeD]-{3Oxa8azabicyclo(3.2.1)octane}; lactam N-11): 9.30 and 6.30 to 7.00.
In the same order, the values of `CC[C@H](C)[C@@H]1NC(=O)[C@H](CC2CCCC2)N(C)C(=O)C[C@@H](C(=O)N2CCCCC2)N(C)C(=O)[C@H](C(C)C)N(C)C(=O)C2(CCCC2)NC(=O)[C@@H]2CCCN2C(=O)[C@H](CCc2ccc(C(F)(F)F)c(Cl)c2)NC(=O)CN(C)C(=O)[C@H](CC2CCCCC2)N(C)C(=O)CN(C)C(=O)CN(C)C1=O` [Compound 60] ([NMeAla(cPent)]I[Sar][Sar][NMeCha][Sar][hPhe(3-Cl-4-CF3)]P[Ac5c][NMeV][NMeD]-Piperidide; lactam N-11) are 8.10 and 6.30 to 7.00.
As for `CC[C@H](C)[C@@H]1NC(=O)[C@H](C)N(C)C(=O)C[C@@H](C)NC(=O)[C@H](C2CCCC2)N(C)C(=O)C2(CCCC2)NC(=O)[C@@H]2CCCN2C(=O)[C@H](CCc2ccc(C(F)(F)F)c(Cl)c2)NC(=O)CN(C)C(=O)[C@H](Cc2ccc(C(F)(F)F)cc2)N(C)C(=O)CN(C)C(=O)CN(C)C1=O` [Compound 1523] (cyclo([Ac5c][NMeGly(cPent)][d(β3hA)][NMeA]I[Sar][Sar][NMePhe(4-CF3)][Sar][hPhe(3-Cl-4-CF3)]P)), the pIC50 in test [1] is 9.12; in test [2], 6.30 to 7.00.
In the same order, the values of `CCCOC[C@H]1C(=O)N[C@@H]([C@@H](C)CC)C(=O)N(C)CC(=O)N(C)CC(=O)N(C)[C@@H](CC2CCCCC2)C(=O)N(C)CC(=O)N[C@@H](CCc2ccc(C(F)(F)F)c(Cl)c2)C(=O)N2CCC[C@H]2C(=O)NC2(CCCC2)C(=O)N(C)[C@@H](C2CCCCC2)C(=O)N(C)[C@H](C(=O)N2CCCCC2)CC(=O)N1C` [Compound 1668] ([NMeS](Propyl)I[Sar][Sar][NMeCha][Sar][hPhe(3-Cl-4-CF3)]P[Ac5c][NMeChg][NMeD]-Piperidide; lactam N-11) are 9.07 and 7.00 to 7.30.
Take `CC[C@H](C)[C@@H]1NC(=O)[C@H](CC(C)C)N(C)C(=O)C[C@@H](C(=O)N2CCC(C)(C)C2)N(C)C(=O)[C@H](C2CCCCC2)N(C)C(=O)C2(CCCC2)NC(=O)[C@@H]2CCCN2C(=O)[C@H](CCc2ccc(C(F)(F)F)c(Cl)c2)NC(=O)CN(C)C(=O)[C@H](CC2CCCCC2)N(C)C(=O)CN(C)C(=O)CN(C)C1=O` [Compound 1150] ([NMeL]I[Sar][Sar][NMeCha][Sar][hPhe(3-Cl-4-CF3)]P[Ac5c][NMeChg][NMeD]-X14; lactam N-11): the pIC50 in test [1] was 9.28; in test [2], 7.00 to 7.30.
In the case of `CC[C@H](C)[C@@H]1NC(=O)[C@H](CC(C)C)N(C)C(=O)C[C@@H](C(=O)N(C)C)N(C)C(=O)[C@H](C2CCCC2)N(C)C(=O)C2(CCCC2)NC(=O)[C@H](CCc2cccnc2)N(C)C(=O)[C@H](CCc2ccc(C(F)(F)F)c(Cl)c2)NC(=O)CN(C)C(=O)[C@H](CC2CCCCC2)N(C)C(=O)[C@@H]2CCN2C(=O)[C@H](C)N(C)C1=O` [Compound 1892] ([NMeL]I[NMeA][Aze][NMeCha][Sar][hPhe(3-Cl-4-CF3)][X11][Ac5c][NMeGly(cPent)][NMeD]-NMe2; lactam N-11), the negative logarithm of the IC50 (pIC50) was 8.82 in test [1] and 7.00 to 7.30 in test [2].
As for `CC[C@H](C)[C@@H]1NC(=O)[C@H](CC(C)C)N(C)C(=O)C[C@@H](C)NC(=O)[C@H](C(C)C)N(C)C(=O)C2(CCC2)NC(=O)[C@@H]2CCCN2C(=O)[C@H](CCc2ccc(C(F)(F)F)c(Cl)c2)NC(=O)CN(C)C(=O)[C@H](CC2CCCCC2)N(C)C(=O)CN(C)C(=O)CN(C)C1=O` [Compound 520] (cyclo([Ac4c][NMeV][d(β3hA)][NMeL]I[Sar][Sar][NMeCha][Sar][hPhe(3-Cl-4-CF3)]P)), the pIC50 in test [1] was 7.77; in test [2], 6.30 to 7.00.
